For this experiment, the system named is monospecies and polymicrobial biofilms of S. aureus and P. aeruginosa. Briefly: Duckworth biofilm flow device (dynamic biofilm). In kind it is cell-based. The settings on record: biofilms grown 1 and 5 days under shear flow in SWF; 256 μg/mL for 6 h. As for the experimental part:
The Duckworth biofilm flow device was set-up and run following the method described by [Duckworth et al. (2018)]. Twelve disks of agar at 1.5% (w/v) concentration were cut using a 10 mm French press punch and placed into designated wells in the flow device. Cellulose filter (13 mm, 0.22 μm, Merck Millipore, Ireland) was placed on top of each agar disk, and was inoculated with 10 μL of the bacterial inoculum. The device was placed in an incubator at 37°C while a continuous flow of SWF was pumped into the device at a flow rate of 0.322 mL/min for 24 h or 5 days using a peristaltic pump (Supplementary Figure S2). Subsequently, topical treatment with D-Bac8c^2,5 Leu was introduced and allowed to run for a further 6 h. The biofilm formed on the cellulose filters were collected and suspended in 1 mL PBS. Colony counting was performed as described above. The Duckworth biofilm flow device was prepared and run as described above with slight modification. A solution of agarose dissolved in SWF (0.3 g in 20 mL), mixed with bacterial cultures at 10^8 CFU/mL and then supplemented with 3% FBS and 0.15% collagen (Merck, Ireland) was allowed to solidify at room temperature and then 12 disks of that was cut using a 10 mm French press punch. The disks were then placed into designated wells and experiments run as previously described. […]

Non-standard residues stand in square brackets, D forms with d. Residues, ends and D or L forms follow the SMILES beside them. Bounds are passed on as bounds.

`CC(C)C[C@@H](NC(=O)[C@H](N)CCCNC(=N)N)C(=O)N[C@H](Cc1c[nH]c2ccccc12)C(=O)N[C@@H](C(=O)N[C@H](CC(C)C)C(=O)N[C@H](Cc1c[nH]c2ccccc12)C(=O)N[C@H](CCCNC(=N)N)C(=O)N[C@H](CCCNC(=N)N)C(N)=O)C(C)C` [D-Bac8c^2,5 Leu] (H-[dR][dL][dW][dV][dL][dW][dR][dR]-NH2; N-terminus assumed) had a reduction in viability not above 3 log.

For the origin of these results see publication PMC12058896, “Potent antimicrobial activity of hydrogel loaded with the antimicrobial peptide, D-Bac8c^2,5 Leu, against monospecies and polymicrobial biofilms of Staphylococcus aureus and Pseudomonas aeruginosa” (Frontiers in Microbiology, 2025).
